The results in this text go back to ChEMBL document CHEMBL3525955, “Glucuronidation of the red clover isoflavone irilone by liver microsomes from different species and human UDP-glucuronosyltransferases” (Drug Metab Dispos, 2011).

Holding throughout (format): ADME
Data set [1] addresses T1, UDP-glucuronosyltransferase 1A9 (Homo sapiens, UniProt O60656).
T1 sequence (O60656 whole entry): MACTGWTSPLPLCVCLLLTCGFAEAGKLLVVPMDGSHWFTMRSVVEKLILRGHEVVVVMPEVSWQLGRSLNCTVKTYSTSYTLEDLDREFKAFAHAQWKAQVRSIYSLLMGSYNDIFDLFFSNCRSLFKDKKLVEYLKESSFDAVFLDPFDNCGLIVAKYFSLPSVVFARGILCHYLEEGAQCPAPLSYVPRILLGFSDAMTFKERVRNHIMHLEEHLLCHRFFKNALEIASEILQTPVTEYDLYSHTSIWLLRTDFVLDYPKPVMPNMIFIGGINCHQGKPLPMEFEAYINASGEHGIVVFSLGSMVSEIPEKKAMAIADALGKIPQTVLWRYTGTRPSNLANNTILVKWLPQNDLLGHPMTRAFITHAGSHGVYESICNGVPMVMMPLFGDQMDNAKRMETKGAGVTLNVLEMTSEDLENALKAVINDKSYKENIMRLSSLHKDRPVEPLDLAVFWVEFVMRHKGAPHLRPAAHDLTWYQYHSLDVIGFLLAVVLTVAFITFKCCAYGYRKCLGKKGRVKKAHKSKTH
The experiment in a line: Activity of human recombinant UGT1A9 assessed as intrinsic clearance incubated for 5 mins prior to UDPGA addition measured after 90 mins. The following applies: recombinant enzyme, 1.5 h.

For data set [2], the target named is T2, UDP-glucuronosyltransferase 1A1 (Homo sapiens, UniProt P22309).
T2 sequence (P22309 whole entry): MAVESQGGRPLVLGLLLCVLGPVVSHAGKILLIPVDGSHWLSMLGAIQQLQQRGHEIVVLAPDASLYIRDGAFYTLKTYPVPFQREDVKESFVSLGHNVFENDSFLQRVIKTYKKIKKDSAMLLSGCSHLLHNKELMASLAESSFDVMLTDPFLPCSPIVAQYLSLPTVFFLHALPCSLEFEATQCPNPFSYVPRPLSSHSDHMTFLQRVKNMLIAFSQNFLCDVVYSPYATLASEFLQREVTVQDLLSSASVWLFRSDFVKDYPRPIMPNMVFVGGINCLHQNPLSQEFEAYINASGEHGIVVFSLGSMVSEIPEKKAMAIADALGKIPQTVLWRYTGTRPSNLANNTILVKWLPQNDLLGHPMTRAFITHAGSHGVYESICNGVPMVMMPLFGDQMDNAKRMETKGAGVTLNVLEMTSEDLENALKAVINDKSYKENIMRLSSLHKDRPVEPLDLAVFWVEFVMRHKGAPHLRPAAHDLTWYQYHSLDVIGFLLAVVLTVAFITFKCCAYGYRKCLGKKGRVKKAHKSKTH
Description: Activity of human recombinant UGT1A1 assessed as intrinsic clearance incubated for 5 mins prior to UDPGA addition measured after 90 mins. The following applies: recombinant enzyme, 1.5 h.

For data set [3], the target named is T2, UDP-glucuronosyltransferase 1A1. The experiment in a line: Substrate inhibition of human recombinant UGT1A1 assessed as IRI-O-4'-monoglucuronide formation incubated for 5 mins prior to UDPGA addition measured after 90 mins by Eadie-Hoftsee plot analysis.
The target is the same in data set [4]. Description: Drug metabolism assessed as human recombinant UGT1A1-mediated irilone-O-5-monoglucuronide formation at 25 uM incubated for 5 mins prior to UDPGA addition measured after 90 mins by HPLC-DAD analysis. The following applies: recombinant enzyme, 1.5 h.
For data set [5], the target named is T3, UDP-glucuronosyltransferase 2B15 (Homo sapiens, UniProt P54855).
T3 sequence (P54855 whole entry): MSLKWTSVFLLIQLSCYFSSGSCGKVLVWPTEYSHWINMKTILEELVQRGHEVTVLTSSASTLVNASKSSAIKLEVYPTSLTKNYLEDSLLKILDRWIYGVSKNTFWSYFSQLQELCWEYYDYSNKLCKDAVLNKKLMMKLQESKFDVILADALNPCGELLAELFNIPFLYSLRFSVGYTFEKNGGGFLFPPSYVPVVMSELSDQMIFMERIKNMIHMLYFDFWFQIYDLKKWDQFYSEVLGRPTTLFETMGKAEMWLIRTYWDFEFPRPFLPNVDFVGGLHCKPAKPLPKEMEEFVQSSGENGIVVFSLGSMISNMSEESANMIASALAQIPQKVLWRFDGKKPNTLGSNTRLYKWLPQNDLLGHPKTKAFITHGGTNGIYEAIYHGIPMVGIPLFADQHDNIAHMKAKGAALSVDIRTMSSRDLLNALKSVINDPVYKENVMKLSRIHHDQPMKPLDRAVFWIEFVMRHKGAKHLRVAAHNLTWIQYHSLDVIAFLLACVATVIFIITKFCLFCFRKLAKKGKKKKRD
The experiment in a line: Drug metabolism assessed as human recombinant UGT2B15-mediated glucuronidation incubated for 5 mins prior to UDPGA addition measured after 90 mins by HPLC-DAD analysis. The following applies: recombinant enzyme, 1.5 h.

Data set [6] deals with T4, UDP-glucuronosyltransferase 1A7 (Homo sapiens, UniProt Q9HAW7).
T4 sequence (Q9HAW7 whole entry): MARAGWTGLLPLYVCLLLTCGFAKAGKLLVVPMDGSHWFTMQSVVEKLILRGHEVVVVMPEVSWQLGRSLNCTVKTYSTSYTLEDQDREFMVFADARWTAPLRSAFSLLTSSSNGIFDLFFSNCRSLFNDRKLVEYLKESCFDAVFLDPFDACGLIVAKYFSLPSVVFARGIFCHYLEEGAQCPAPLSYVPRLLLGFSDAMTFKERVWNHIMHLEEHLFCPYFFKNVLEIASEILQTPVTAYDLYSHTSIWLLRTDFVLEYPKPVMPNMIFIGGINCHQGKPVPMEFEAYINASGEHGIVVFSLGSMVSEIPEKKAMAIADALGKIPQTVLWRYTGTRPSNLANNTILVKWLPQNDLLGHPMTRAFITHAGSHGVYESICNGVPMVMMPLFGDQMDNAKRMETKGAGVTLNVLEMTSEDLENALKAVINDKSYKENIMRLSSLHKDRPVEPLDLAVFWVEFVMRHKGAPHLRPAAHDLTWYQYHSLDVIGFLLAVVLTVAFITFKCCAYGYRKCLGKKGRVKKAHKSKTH
The experiment in a line: Drug metabolism assessed as human recombinant UGT1A7-mediated irilone-O-4'-monoglucuronide formation at 25 uM incubated for 5 mins prior to UDPGA addition measured after 90 mins by HPLC-DAD analysis. The following applies: recombinant enzyme, 1.5 h.

With `O=c1c(-c2ccc(O)cc2)coc2cc3c(c(O)c12)OCO3`, the CL in data set [1] amounted to 53300 µL/min/mg; in data set [2], 27200 µL/min/mg. Besides, the Ki in data set [3] turned out to be 14.1 µM. Also, the results for the Drug metabolism entry in data set [4], in data set [5] and in data set [6] were “metabolite_detected”, “metabolite_not_detected” and “metabolite_detected”, respectively.
